Experimental data reported in patent publication US20130274174A1, “THERAPEUTIC COMBINATION OF DAPTOMYCIN AND PROTEIN SYNTHESIS INHIBITOR ANTIBIOTIC, AND METHODS OF USE” (priority 2011, published 2013).
Values after ≈ are worked out from the molar mass of the structure shown. Read-outs that look alike come from different tables or passages of the source.

Key:
[1] = system: S. aureus ATCC 33591; experiment: microbe, parasite or virus in culture; format: cell-based, Staphylococcus aureus; settings: Staphylococcus aureus
Experimental: (§1) S. aureus strains MW2 (NARSA collection clinical MRSA isolate, NRS123) and ATCC 33591 (MRSA strain from the American Type Culture Collection) were cultured on Mueller-Hinton II cation adjusted (MHA) medium in 90×90 mm square petri dishes. MHA containing ¼ of the MIC value of TR-700, TR-705, LZD, TIA, CLI, TET, or VAN, TMP/SMX throughout the plate and a continuous linear gradient of DAP across the plate was used to passage MW2. ATCC 33591 was passaged with ¼ of the MIC of a subset of these drugs (TR-700, TMP/SMX, and VAN). A DAP-only control passage group was included for both strains. DAP gradients were created by pouring two layers of media as previously described (Bryson, V., et al. 1952. Microbial selection. Science 116:45-51; Locke, J. B., et al., 2009. Antimicrob. Agents Chemother. 53:5265-5274). Following each passage the leading edge of growth (i.e., most resistant cells) was resuspended in phosphate buffered saline (PBS) to an absorbance of 0.30 OD600 and a 100 μl aliquot containing ˜3.0×10^7 CFU (colony-forming units) was spread on to the proceeding passage plate. The starting maximal DAP concentration was 2 μg/ml and was increased in two-fold increments when the leading edge of growth surpassed the half way point on the plate. A glycerol stock was made from the total cell population for each culture condition for each passage. Thirty serial passages were completed for each treatment group.

[2] = system: S. aureus MW2 (NRS123); experiment: microbe, parasite or virus in culture; format: cell-based, Staphylococcus aureus; settings: for MIC: Staphylococcus aureus
Experimental: as §1

Structure (SMILES): CN[C@H](CC(C)C)C(=O)N[C@H]1C(=O)N[C@@H](CC(N)=O)C(=O)N[C@H]2C(=O)N[C@H]3C(=O)N[C@H](C(=O)N[C@H](C(=O)O)c4cc(O)cc(O)c4-c4cc3ccc4O)[C@H](O)c3ccc(c(Cl)c3)Oc3cc2cc(c3O[C@@H]2O[C@H](CO)[C@@H](O)[C@H](O)[C@H]2O[C@H]2C[C@](C)(N)[C@H](O)[C@H](C)O2)Oc2ccc(cc2Cl)[C@H]1O [VAN, vancomycin]
- MIC ([1]; ATCC33591, passage 0, ATCC 33591 WT): 2 µg/mL (≈ 1.38 µM)
- MIC ([1]; ATCC33591, passage 5, selection group DAP): 4 µg/mL (≈ 2.76 µM)
- MIC ([1]; ATCC33591, passage 5, selection group DAP + TMP/SMX): 4 µg/mL
- MIC ([1]; ATCC33591, passage 5, selection group DAP + TR-700): 2 µg/mL
- MIC ([1]; ATCC33591, passage 5, selection group DAP + VAN): 4 µg/mL
- MIC ([1]; ATCC33591, passage 10, selection group DAP): 4 µg/mL (≈ 2.76 µM)
- MIC ([1]; ATCC33591, passage 10, selection group DAP + TMP/SMX): 8 µg/mL
- MIC ([1]; ATCC33591, passage 10, selection group DAP + TR-700): 4 µg/mL
- MIC ([1]; ATCC33591, passage 10, selection group DAP + VAN): 4 µg/mL
- MIC ([1]; ATCC33591, passage 15, selection group DAP): 4 µg/mL (≈ 2.76 µM)
- MIC ([1]; ATCC33591, passage 15, selection group DAP + TMP/SMX): 4 µg/mL
- MIC ([1]; ATCC33591, passage 15, selection group DAP + TR-700): 4 µg/mL
- MIC ([1]; ATCC33591, passage 15, selection group DAP + VAN): 4 µg/mL
- MIC ([1]; ATCC33591, passage 20, selection group DAP): 4 µg/mL (≈ 2.76 µM)
- MIC ([1]; ATCC33591, passage 20, selection group DAP + TMP/SMX): 4 µg/mL
- MIC ([1]; ATCC33591, passage 20, selection group DAP + TR-700): 4 µg/mL
- MIC ([1]; ATCC33591, passage 20, selection group DAP + VAN): 8 µg/mL
- MIC ([1]; ATCC33591, passage 25, selection group DAP): 4 µg/mL (≈ 2.76 µM)
- MIC ([1]; ATCC33591, passage 25, selection group DAP + TMP/SMX): 4 µg/mL
- MIC ([1]; ATCC33591, passage 25, selection group DAP + TR-700): 4 µg/mL
- MIC ([1]; ATCC33591, passage 25, selection group DAP + VAN): 8 µg/mL
- MIC ([1]; ATCC33591, passage 30, selection group DAP): 4 µg/mL (≈ 2.76 µM)
- MIC ([1]; ATCC33591, passage 30, selection group DAP + TMP/SMX): 4 µg/mL
- MIC ([1]; ATCC33591, passage 30, selection group DAP + TR-700): 2 µg/mL
- MIC ([1]; ATCC33591, passage 30, selection group DAP + VAN): 4 µg/mL
- MIC ([2]; NRS123, passage 0, NRS123 WT): 1 µg/mL (≈ 0.69 µM)
- MIC ([2]; NRS123, passage 5, selection group DAP): 2 µg/mL (≈ 1.38 µM)
- MIC ([2]; NRS123, passage 5, selection group DAP + CLI): 4 µg/mL
- MIC ([2]; NRS123, passage 5, selection group DAP + LZD): 4 µg/mL
- MIC ([2]; NRS123, passage 5, selection group DAP + TET): 2 µg/mL
- MIC ([2]; NRS123, passage 5, selection group DAP + TIA): 2 µg/mL
- MIC ([2]; NRS123, passage 5, selection group DAP + TMP/SMX): 8 µg/mL
- MIC ([2]; NRS123, passage 5, selection group DAP + TR-700): 2 µg/mL
- MIC ([2]; NRS123, passage 5, selection group DAP + TR-705): 4 µg/mL
- MIC ([2]; NRS123, passage 5, selection group DAP + VAN): 4 µg/mL
- MIC ([2]; NRS123, passage 10, selection group DAP): 4 µg/mL (≈ 2.76 µM)
- MIC ([2]; NRS123, passage 10, selection group DAP + CLI): 4 µg/mL
- MIC ([2]; NRS123, passage 10, selection group DAP + LZD): 8 µg/mL
- MIC ([2]; NRS123, passage 10, selection group DAP + TET): 2 µg/mL
- MIC ([2]; NRS123, passage 10, selection group DAP + TIA): 4 µg/mL
- MIC ([2]; NRS123, passage 10, selection group DAP + TMP/SMX): 8 µg/mL
- MIC ([2]; NRS123, passage 10, selection group DAP + TR-700): 2 µg/mL
- MIC ([2]; NRS123, passage 10, selection group DAP + TR-705): 2 µg/mL
- MIC ([2]; NRS123, passage 10, selection group DAP + VAN): 4 µg/mL
- MIC ([2]; NRS123, passage 15, selection group DAP): 8 µg/mL (≈ 5.52 µM)
- MIC ([2]; NRS123, passage 15, selection group DAP + CLI): 8 µg/mL
- MIC ([2]; NRS123, passage 15, selection group DAP + LZD): 8 µg/mL
- MIC ([2]; NRS123, passage 15, selection group DAP + TET): 0.5 µg/mL
- MIC ([2]; NRS123, passage 15, selection group DAP + TIA): 4 µg/mL
- MIC ([2]; NRS123, passage 15, selection group DAP + TMP/SMX): 8 µg/mL
- MIC ([2]; NRS123, passage 15, selection group DAP + TR-700): 2 µg/mL
- MIC ([2]; NRS123, passage 15, selection group DAP + TR-705): 2 µg/mL
- MIC ([2]; NRS123, passage 15, selection group DAP + VAN): 8 µg/mL
- MIC ([2]; NRS123, passage 20, selection group DAP): 8 µg/mL (≈ 5.52 µM)
- MIC ([2]; NRS123, passage 20, selection group DAP + CLI): 8 µg/mL
- MIC ([2]; NRS123, passage 20, selection group DAP + LZD): 8 µg/mL
- MIC ([2]; NRS123, passage 20, selection group DAP + TET): 1 µg/mL
- MIC ([2]; NRS123, passage 20, selection group DAP + TIA): 4 µg/mL
- MIC ([2]; NRS123, passage 20, selection group DAP + TMP/SMX): 8 µg/mL
- MIC ([2]; NRS123, passage 20, selection group DAP + TR-700): 2 µg/mL
- MIC ([2]; NRS123, passage 20, selection group DAP + TR-705): 2 µg/mL
- MIC ([2]; NRS123, passage 20, selection group DAP + VAN): 8 µg/mL
- MIC ([2]; NRS123, passage 25, selection group DAP): 4 µg/mL (≈ 2.76 µM)
- MIC ([2]; NRS123, passage 25, selection group DAP + CLI): 8 µg/mL
- MIC ([2]; NRS123, passage 25, selection group DAP + LZD): 8 µg/mL
- MIC ([2]; NRS123, passage 25, selection group DAP + TET): 1 µg/mL
- MIC ([2]; NRS123, passage 25, selection group DAP + TIA): 2 µg/mL
- MIC ([2]; NRS123, passage 25, selection group DAP + TMP/SMX): 8 µg/mL
- MIC ([2]; NRS123, passage 25, selection group DAP + TR-700): 2 µg/mL
- MIC ([2]; NRS123, passage 25, selection group DAP + TR-705): 2 µg/mL
- MIC ([2]; NRS123, passage 25, selection group DAP + VAN): 8 µg/mL
- MIC ([2]; NRS123, passage 30, selection group DAP): 2 µg/mL (≈ 1.38 µM)
- MIC ([2]; NRS123, passage 30, selection group DAP + CLI): 8 µg/mL
- MIC ([2]; NRS123, passage 30, selection group DAP + LZD): 2 µg/mL
- MIC ([2]; NRS123, passage 30, selection group DAP + TET): 1 µg/mL
- MIC ([2]; NRS123, passage 30, selection group DAP + TIA): 4 µg/mL
- MIC ([2]; NRS123, passage 30, selection group DAP + TMP/SMX): 8 µg/mL
- MIC ([2]; NRS123, passage 30, selection group DAP + TR-700): 2 µg/mL
- MIC ([2]; NRS123, passage 30, selection group DAP + TR-705): 2 µg/mL
- MIC ([2]; NRS123, passage 30, selection group DAP + VAN): 4 µg/mL
- MIC ([2]; NRS123, read-out: DAP MIC by the end of the experiment (selection of DAP^ns strains), MW2, passaged with DAP alone or with co-selecting agent at ¼ MIC, CLSI breakpoint): > 1 µg/mL
- effect on preventing the emergence of DAP^ns ([2]; co-selection at ¼ MIC, VAN: both backgrounds): had an effect on preventing the emergence of DAP^ns strains
- DAP/VAN cross-resistance ([2]; co-selection with VAN, both backgrounds): cross-resistance was observed
